{"source": "patent US20070093461A1", "about": "“Effect of Loteprednol etabonate on vascular dysfunction” (Bausch & Lomb Incorporated, priority 2005, published 2007)", "format_in_all_cases": "cell-based, human", "key": {"[1]": {"tested_on": "HREC", "assay": "Cellular toxicity in LE-treated HREC", "conditions": "highest concentration of LE tested (50 μM)"}, "[2]": {"tested_on": "VEGF", "assay": "ELISA for VEGF in supernatants of LE-treated HREC", "conditions": "LE 0, 10, 25 & 50 μM, 3 days", "description": "(§1) HREC were treated with LE (10, 25 and 50 μM) for 3 days. Supernatants were removed and microcentrifuge (Beckman Microfuge R) 1000 RPM for 10 min (4° C. after which they were stored at −70° C. until needed. ELISA kits (R&D systems) for human vascular endothelial growth factor (VEGF), soluble intracellular adhesion molecule (sICAM-1) and soluble vascular cell adhesion molecule (sVCAM-1) were used according to the manufacturer's instructions."}, "[3]": {"tested_on": "occludin", "assay": "Western blot analysis of occludin in cell lysates", "conditions": "LE 0, 10 & 50 μM; daily administration for 3 days necessary to maintain effect", "description": "Cells were treated with LE (0, 10 & 50 μM) for either 3 days or LE (0, 10 & 50 μM) was replenished everyday for 3 days. Cells were lysed and protein levels determined/adjusted (see above). SDS PAGE was performed on cell lysates and then separated proteins were transferred on to a nitrocellulose (NC) paper (Invitrogen). NC paper was blocked with 3% non-fat milk in phosphate buffered saline (PBS) for 1 hour and then probed with specific anti bodies to occludin (Rabbit anti-occludin polyclonal and monoclonal antibodies, Zymed); Goat anti-occludin (Santa Cruz). NC paper was then incubated with secondary horseradish peroxidase conjugated antibody for 1 hour and the bands were visualized using DAB (3,3′-diaminobenzidine) (Vector Laboratories) or cheminluminescence (SuperSignal West Dura, Pierce)."}, "[4]": {"tested_on": "sICAM-1", "assay": "ELISA for sICAM-1 in supernatants of LE-treated HREC", "conditions": "HREC with or without LPS activation; LE 0, 10, 25 & 50 μM, 3 days; p≦0.05 (FIG. 2B)", "description": "as §1"}, "[5]": {"tested_on": "ZO-1", "assay": "Immunohistochemistry of tight junction protein ZO-1 in VEGF-treated HREC", "conditions": "LE 10 & 50 μM for 1 hour, then VEGF 20 ng/ml for 1 hour, listed as LE", "description": "Human retina endothelial cells were seeded onto an 8-well glass chamber and allowed to become 80-90% confluent. Cells were treated with or without LE for 1 hour and then treated with VEGF (20 ng/ml) for 1 hour. HREC were immediately fixed and stained with specific antibodies to occludin and zonula occluden-1 (Zymed). FITC-conjugated secondary antibodies (R&D Systems) were used to visualize tight junction distribution/integrity."}, "[6]": {"tested_on": "sVCAM-1", "assay": "ELISA for sVCAM-1 in supernatants of LE-treated HREC", "conditions": "HREC with or without LPS activation; LE 0, 10, 25 & 50 μM, 3 days; p≦0.05 (FIG. 2A)", "description": "as §1"}}, "note": "“Also recorded” adds a separate entry of the source.", "data": [{"compound": "CCOC(=O)O[C@]1(C(=O)OCCl)CC[C@H]2[C@@H]3CCC4=CC(=O)C=C[C@]4(C)[C@H]3[C@@H](O)C[C@@]21C", "note": "[Loteprednol etabonate]", "values": [{"measurement": "cellular toxicity", "setting": "[1]", "result": "no apparent cellular toxicity"}, {"measurement": "expression of VEGF", "setting": "[2]; HREC with LPS activation, p≦0.01 (FIG. 1A)", "result": "significantly down regulated"}, {"measurement": "expression of VEGF", "setting": "[2]; HREC without LPS activation, p≦0.01 (FIG. 1B)", "result": "significantly down regulated"}, {"measurement": "total content of occludin", "setting": "[3]", "result": "increased"}, {"measurement": "expression of sICAM-1", "setting": "[4]", "result": "significantly down regulated"}, {"measurement": "effect on VEGF-induced disruption/redistribution of ZO-1 (tight junction)", "setting": "[5]", "result": "reversed the effect of VEGF tight junction disruption; also recorded: inhibited the effect of VEGF-induced disruption of ZO-1"}, {"measurement": "expression of sVCAM-1", "setting": "[6]", "result": "significantly down regulated"}]}]}
